# Reference: ChEMBL document CHEMBL5233238, “Research progress on sirtuins family members and cell senescence” (2020)
# Tests used:
# Type in all cases: functional
# [1] = test system: Caenorhabditis elegans; assay: Regulation of metabolic activity in […] assessed as increasing in average life span at 25 mol/L relative to control
# [2] = test system: Caenorhabditis elegans; assay: Regulation of metabolic activity in […] assessed as increasing in average life span at 50 mol/L relative to control
# [3] = test system: Caenorhabditis elegans; assay: Regulation of metabolic activity in […] assessed as increasing in average life span at 100 mol/L relative to control
smiles,measurement,setting,value
CN(C)C(=N)NC(=N)N [METFORMIN],Activity,[1],18%
same,Activity,[2],36%
same,Activity,[3],3%
